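Protocol summary: plate cells (96-well), add compound at 5 concentrations, incubate 48 h, interpolate endpoints linearly. GI50 = concentration required for 50% inhibition of growth. TGI marks complete inhibition of growth.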
Assays:
Assay in all cases: NCI anticancer screen, dose series, 48 h
UACC-257 melanoma = test system: UACC-257 melanoma
SK-MEL-28 melanoma = test system: SK-MEL-28 melanoma
UO-31 renal = test system: UO-31 renal
HL-60(TB) leukemia = test system: HL-60(TB) leukemia
MALME-3M melanoma = test system: MALME-3M melanoma
SR leukemia = test system: SR leukemia
M14 melanoma = test system: M14 melanoma
SNB-19 CNS = test system: SNB-19 CNS
CCRF-CEM leukemia = test system: CCRF-CEM leukemia
TK-10 renal = test system: TK-10 renal
NCI-H23 lung = test system: NCI-H23 lung
HCT-15 colon = test system: HCT-15 colon
U251 CNS = test system: U251 CNS
KM12 colon = test system: KM12 colon
SF-268 CNS = test system: SF-268 CNS
OVCAR-8 ovarian = test system: OVCAR-8 ovarian
HT29 colon = test system: HT29 colon
HCC-2998 colon = test system: HCC-2998 colon
SK-MEL-2 melanoma = test system: SK-MEL-2 melanoma

Row | SMILES | TGI (UACC-257 melanoma) | TGI (SK-MEL-28 melanoma) | TGI (UO-31 renal) | TGI (HL-60(TB) leukemia) | TGI (MALME-3M melanoma) | TGI (SR leukemia) | TGI (M14 melanoma) | TGI (SNB-19 CNS) | TGI (CCRF-CEM leukemia) | TGI (TK-10 renal) | TGI (NCI-H23 lung) | TGI (HCT-15 colon) | TGI (U251 CNS) | TGI (KM12 colon) | TGI (SF-268 CNS) | TGI (OVCAR-8 ovarian) | TGI (HT29 colon) | TGI (HCC-2998 colon) | TGI (SK-MEL-2 melanoma) | GI50 (CCRF-CEM leukemia)
1 | CN1C2CCC1CC(C)(O)C2 (centres undefined) | > 100 µM | > 100 µM | > 100 µM | > 100 µM | > 100 µM | > 100 µM | > 100 µM | > 100 µM | > 100 µM | > 100 µM | > 100 µM | > 100 µM | > 100 µM | > 100 µM | > 100 µM | > 100 µM | > 100 µM | > 100 µM | > 100 µM | –
2 | O=C(N/N=C/c1cc(Br)cc(Br)c1[O-])c1ccccc1O.O=C(N/N=C/c1cc(Br)cc(Br)c1[O-])c1ccccc1O.[Cu+2] | 1.74 µM | 2.01 µM | 1.5 µM | 0.359 µM | 1.35 µM | 1.17 µM | 1.05 µM | 2.28 µM | 4.54 µM | 1.58 µM | 0.484 µM | 1.77 µM | 1.24 µM | 1.98 µM | 2.51 µM | 1.38 µM | 2.5 µM | 1.48 µM | 1.93 µM | 0.446 µM
